Tests used:
[1] = Solubility was determined; type: physicochemical
Mus musculus [2] = species on record: Mus musculus; assay: Minimum effective dose for immunostimulant activity in mice was determined; type: functional; details: read-out: MED
Mus musculus [3] = species on record: Mus musculus; assay: Minimum effective dose for immunostimulant activity in mice was determined; Toxic; type: functional, organism-based

| solubility [1] [µg/mL] | Structure (SMILES) | minimal effective dose (Mus musculus [2]) [mg/kg] | MED (Mus musculus [3]) |
| --- | --- | --- | --- |
| > 6000 | CCc1ccc(Nc2cc(C)nc3ccc4c[nH]nc4c23)cc1 | 12.5 |  |
| < 6000 | Cc1cc(Nc2ccc(Cl)cc2)c2c(ccc3c[nH]nc32)n1 | 1.85 |  |
| < 6000 | Cc1cc(Nc2ccc(OCC3CCCCC3)cc2)c2c(ccc3c[nH]nc32)n1 | 0.62 |  |
| ≥ 25000 | c1cc(NC2CCCCC2)c2c(ccc3c[nH]nc32)n1 |  | Toxic |
| < 6000 | c1cc(Nc2ccc(OCC3CCCCC3)cc2)c2c(ccc3c[nH]nc32)n1 | 0.62 |  |
|  | Cc1cc(Nc2cccnc2)c2c(ccc3c[nH]nc32)n1 | > 50 |  |
| > 6000 | CCCCc1ccc(Nc2ccnc3ccc4c[nH]nc4c23)cc1 | 6.25 |  |
| > 6000 | CCCc1ccc(Nc2cc(C)nc3ccc4c[nH]nc4c23)cc1 | 6.25 |  |
| < 6000 | Cc1ccc(Nc2cc(C)nc3ccc4c[nH]nc4c23)cc1 | 6.25 |  |
|  | COc1ccc(Nc2cc(C)nc3ccc4c[nH]nc4c23)cc1 | 16.7 |  |
|  | Cc1cc(Nc2ccc(SCC(=O)O)cc2)c2c(ccc3c[nH]nc32)n1 | > 50 |  |
|  | Cc1cc(Nc2ccc(O)cc2)c2c(ccc3c[nH]nc32)n1 | 16.7 |  |
| < 6000 | Clc1ccc(Nc2ccnc3ccc4c[nH]nc4c23)cc1 | 12.5 |  |
| ≥ 25000 | Cc1cc(NC2CCCCC2)c2c(ccc3c[nH]nc32)n1 | 1.85 |  |
| > 6000 | CCCCOc1ccc(Nc2ccnc3ccc4c[nH]nc4c23)cc1 | 3.13 |  |
| < 6000 | Cc1cc(Nc2ccc(OCc3ccccc3)cc2)c2c(ccc3c[nH]nc32)n1 | 0.62 |  |
| < 6000 | CCCCOc1ccc(Nc2cc(C)nc3ccc4c[nH]nc4c23)cc1 | 1.85 |  |
